Test results taken from patent publication US10919852B2, “Immunomodulator compounds” (CHEMOCENTRYX, INC., priority 2017, dated 2021).

These molecules were tested against human PD-L1 / Human PD-1 (Homo sapiens (Human), UniProt Q9NZQ7) (assay: Enzyme-Linked Immunosorbent Assay (ELISA), PD-1/PD-L1 binding). Details: plate-coated human PD-L1, biotinylated human PD-1.
Summary of the method: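 Plates were coated with human PD-L1 at […]. Biotinylated human PD-1 (0.3 μg/mL) was added with 1:5 serially diluted compound for 1 h at 37 °C. Bound PD-1 was detected with streptavidin-HRP (1 h) and TMB (20 min), with absorbance read at 450 nm.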

human PD-L1 / Human PD-1, sequence (Q9NZQ7 19-239): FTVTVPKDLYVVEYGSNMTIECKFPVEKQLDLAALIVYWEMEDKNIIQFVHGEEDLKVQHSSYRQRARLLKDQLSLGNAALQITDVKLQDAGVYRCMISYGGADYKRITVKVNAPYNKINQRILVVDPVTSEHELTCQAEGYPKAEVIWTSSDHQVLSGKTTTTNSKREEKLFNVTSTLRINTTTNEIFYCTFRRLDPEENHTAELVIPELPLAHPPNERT

| IC50 [nM] | Structure (SMILES) |
| --- | --- |
| 5 to 500 | CCOC(=O)[C@@H](NCc1cc(Cl)c(O[C@H]2CCc3c(-c4cccc(OCCCN5CCC(O)CC5)c4C)cccc32)cc1OCc1cncc(C#N)c1)[C@@H](C)O |
| < 5 | Cc1c(OCCCN2CCC(O)CC2)cccc1-c1cccc2c1CC[C@@H]2Oc1cc(OCc2cc(C#N)cc(C#N)c2)c(CN[C@@H](CO)C(=O)O)cc1Cl |
| < 5 | Cc1c(OCCCN2CCC(O)CC2)cccc1-c1cccc2c1CC[C@@H]2Oc1cc(OCc2cc(C#N)cc(C#N)c2)c(CN[C@H](C(=O)O)[C@@H](C)O)cc1Cl |
| < 5 | Cc1c(OCCCN2CCC(O)CC2)cccc1-c1cccc2c1CC[C@@H]2Oc1cc(OCc2cc(C#N)cc(C#N)c2)c(CN[C@@H]2CCCC[C@@H]2O)cc1Cl |
| < 5 | Cc1c(OCCCN2CCCC2(C)C)cccc1-c1cccc2c1CC[C@@H]2Oc1cc(OCc2cc(C#N)cc(C#N)c2)c(CN[C@H]2CCC(=O)NC2)cc1Cl |
| < 5 | CCN1CCC(COc2cccc(-c3cccc4c3CC[C@@H]4Oc3cc(OCc4cncc(C#N)c4)c(CN[C@H]4CCC(=O)NC4)cc3Cl)c2Cl)C1 (some centres unmarked) |
| 5 to 500 | Cc1c(OCCCN2CCC(F)CC2)cccc1-c1cc(F)cc2c1CC[C@@H]2Oc1cc(OCc2cc(C#N)cc(C#N)c2)c(CN[C@H]2CCC(=O)NC2)cc1Cl |
| 5 to 500 | Cc1c(OCCCN2CCC(F)CC2)cccc1-c1cccc2c1CC[C@@H]2Oc1cc(OCc2cc(C#N)cc(C#N)c2)c(CN[C@H]2CCCNC2=O)cc1Cl |
| 5 to 500 | Cc1c(OCCCN2CCC(F)CC2)cccc1-c1cccc2c1CC[C@@H]2Oc1cc(OCc2cc(C#N)cc(C#N)c2)c(CN[C@@H]2CCCNC2=O)cc1Cl |
| 5 to 500 | Cc1c(OCCCN2CCC(F)CC2)cccc1-c1cccc2c1C[C@@H](F)[C@@H]2Oc1cc(OCc2cc(C#N)cc(C#N)c2)c(CN[C@H]2CCC(=O)NC2)cc1Cl |
| 5 to 500 | Cc1c(OCCCN2CCC(C)(F)CC2)cccc1-c1cccc2c1C[C@@H](F)[C@@H]2Oc1cc(OCc2cc(C#N)cc(C#N)c2)c(CN[C@H]2CCC(=O)NC2)cc1Cl |
| 5 to 500 | Cc1c(OCCCN2CCC(F)CC2)cccc1-c1cccc2c1CC[C@@H]2Oc1cc(OCc2cc(C#N)cc(C#N)c2)c(CN[C@@H]2CCC(=O)NC2=O)cc1Cl |
| 5 to 500 | Cc1c(OCCCN2C(C)(C)CCCC2(C)C)cccc1-c1cccc2c1CC[C@@H]2Oc1cc(OCc2cc(C#N)cc(C#N)c2)c(CN[C@H]2CCC(=O)NC2)cc1Cl |
| 5 to 500 | CCOc1cc(O[C@H]2CCc3c(-c4cccc(OCCCN5CCC(F)CC5)c4Cl)cccc32)c(Cl)cc1CN[C@@H]1CCC(=O)NC1 |
| 5 to 500 | Cc1c(OCCCN2CCC(F)(C#N)CC2)cccc1-c1cccc2c1CC[C@@H]2Oc1cc(OCc2cc(C#N)cc(C#N)c2)c(CN[C@H]2CCC(=O)NC2)cc1Cl |
| < 5 | Cc1c(OCCCN2CCC(F)CC2)cccc1-c1cccc2c1CC[C@@H]2Oc1cc(OCc2cc(C#N)cc(C#N)c2)c(CNC2CCNC(=O)C2)cc1Cl (some centres unmarked) |
| 5 to 500 | Cc1c(OCCCN2CCC[C@@H](F)C2)cccc1-c1cccc2c1CC[C@@H]2Oc1cc(OCc2cc(C#N)cc(C#N)c2)c(CN[C@H]2CCC(=O)NC2)cc1Cl |
| 5 to 500 | CCOc1cc(O[C@H]2CCc3c(-c4cccc(OCCCN5CCC(F)CC5)c4Cl)cccc32)c(Cl)cc1CN[C@H]1CCC(=O)NC1 |
| < 5 | Cc1c(OCCCN2C(C)CC2C)cccc1-c1cccc2c1CC[C@@H]2Oc1cc(OCc2cc(C#N)cc(C#N)c2)c(CN[C@H]2CCC(=O)NC2)cc1Cl (some centres unmarked) |
| 5 to 500 | COc1cc(O[C@H]2CCc3c(-c4cccc(OCCCN5CCC(F)CC5)c4C)cccc32)c(Cl)cc1CN[C@H]1CCC(=O)NC1 |
| 5 to 500 | COc1cc(O[C@H]2CCc3c(-c4cccc(OCCCN5CCC(C)(F)CC5)c4C)cccc32)c(Cl)cc1CN[C@H]1CCC(=O)NC1 |

| IC50 [nM] | Structure (SMILES) |
| --- | --- |
| 5 to 500 | Cc1c(OCCCN2CCCCC2(C)C)cccc1-c1cccc2c1CC[C@@H]2Oc1cc(OCc2cc(C#N)cc(C#N)c2)c(CN[C@H]2CCC(=O)NC2)cc1Cl |
| 5 to 500 | Cc1c(OCCCN2CCCC2C(C)(C)C)cccc1-c1cccc2c1CC[C@@H]2Oc1cc(OCc2cc(C#N)cc(C#N)c2)c(CN[C@H]2CCC(=O)NC2)cc1Cl (some centres unmarked) |
| 5 to 500 | CN1CCC(COc2cccc(-c3cccc4c3CC[C@@H]4Oc3cc(OCc4cncc(C#N)c4)c(CN[C@H]4CCC(=O)NC4)cc3Cl)c2Cl)C1 (some centres unmarked) |
| 5 to 500 | Cc1c(OCCCN2CC(C)(F)C2)cccc1-c1cccc2c1CC[C@@H]2Oc1cc(OCc2cc(C#N)cc(C#N)c2)c(CNC[C@H]2CCC(=O)N2)cc1Cl |
| < 5 | N#Cc1cncc(COc2cc(O[C@H]3CCc4c(-c5cccc(OCCCN6CCC(F)CC6)c5Cl)cccc43)c(Cl)cc2CN2CC(C(=O)O)C2)c1 |
| 5 to 500 | Cc1c(OCCCN2CC(C)(F)C2)cccc1-c1cccc2c1CC[C@@H]2Oc1cc(OCc2cc(C#N)cc(C#N)c2)c(CN[C@H]2CCC(=O)NC2)cc1Cl |
| < 5 | Cc1c(OCCCN2CC(C)(C)C2)cccc1-c1cccc2c1CC[C@@H]2Oc1cc(OCc2cc(C#N)cc(C#N)c2)c(CN[C@H]2CCC(=O)NC2)cc1Cl |
| 5 to 500 | CCOc1cc(O[C@@H]2c3cccc(-c4cccc(OCCCN5CCC(C)(F)CC5)c4C)c3C[C@@H]2F)c(Cl)cc1CN[C@H](C(=O)NS(C)(=O)=O)[C@@H](C)O |
| 5 to 500 | Cc1c(OCCCN2CCC(F)CC2)cccc1-c1cccc2c1CC[C@@H]2Oc1cc(OCc2cncc(C#N)c2)c(CNCC2CCC(=O)N2C)cc1Cl (some centres unmarked) |
| 5 to 500 | CCOc1cc(O[C@H]2CCc3c(-c4cccc(OCCCNC(C)(C)C)c4C)cccc32)c(Cl)cc1CN1CC(C(=O)O)C1 |
| 5 to 500 | CCOc1cc(O[C@H]2CCc3c(-c4cccc(OCCCN5CCCC5(C)C)c4C)cccc32)c(Cl)cc1CN(C[C@@H]1CCC(=O)N1)C(C)C |
| 5 to 500 | CN1CC(COc2cccc(-c3cccc4c3CC[C@@H]4Oc3cc(OCc4cncc(C#N)c4)c(CN[C@H]4CCC(=O)NC4)cc3Cl)c2Cl)CC1=O (some centres unmarked) |
| 5 to 500 | Cc1c(OCCCN2CCC(F)CC2)cccc1-c1cccc2c1CC[C@@H]2Oc1cc(OCc2cncc(C#N)c2)c(CN2CC(S(N)(=O)=O)C2)cc1Cl |
| 5 to 500 | CCOc1cc(O[C@H]2CCc3c(-c4cccc(OCCCN5CCC5(C)C)c4C)cccc32)c(Cl)cc1CN[C@H]1CCC(=O)NC1 |
| < 5 | CCOc1cc(O[C@H]2CCc3c(-c4cccc(OCCCN5CCC5(C)C)c4C)cccc32)c(Cl)cc1CNC[C@@H]1CCC(=O)N1 |
| 5 to 500 | CCOc1cc(O[C@H]2CCc3c(-c4cccc(OCCCN5CCC5(C)C)c4C)cccc32)c(Cl)cc1CN1CCC1(C)C |
| 5 to 500 | CCOc1cc(O[C@H]2CCc3c(-c4cccc(OCCCN5CCOCC5)c4C)cccc32)c(Cl)cc1CN1CC(C)(C(=O)O)C1 |
| 5 to 500 | CCOc1cc(O[C@H]2CCc3c(-c4cccc(OCCCN5CCC5(C)C)c4C)cccc32)c(Cl)cc1CN1CC(C(=O)O)C1 |
| 5 to 500 | CCOc1cc(O[C@H]2CCc3c(-c4cccc(OCCCN5CCC5(C)C)c4C)cccc32)c(Cl)cc1CN1CC(C)(C(=O)O)C1 |
| 5 to 500 | Cc1c(OCCCN2CC[C@@H](F)C[C@@H]2C)cccc1-c1cccc2c1CC[C@@H]2Oc1cc(OCc2cc(C#N)cc(C#N)c2)c(CN[C@H]2CCC(=O)NC2)cc1Cl |
| 5 to 500 | CCOc1cc(O[C@H]2CCc3c(-c4cccc(OCCCN5CCC5(C)C)c4C)cccc32)c(Cl)cc1CNC[C@H]1CCC(=O)N1 |

| IC50 [nM] | Structure (SMILES) |
| --- | --- |
| 5 to 500 | CCOc1cc(O[C@H]2CCc3c(-c4cccc(OCCCN5CCC5(C)C)c4C)cccc32)c(Cl)cc1CN1CC(C)(C#N)C1 |
| 5 to 500 | CCOc1cc(O[C@H]2CCc3c(-c4cccc(OCCCN5CCC5(C)C)c4C)cccc32)c(Cl)cc1CN1CC(C#N)C1 |
| < 5 | CCOc1cc(O[C@H]2CCc3c(-c4cccc(OCCCN5[C@H](C)CC[C@H]5C)c4C)cccc32)c(Cl)cc1CNC[C@@H]1CCC(=O)N1 |
| 5 to 500 | CCOc1cc(O[C@H]2CCc3c(-c4cccc(OCCCN5CCC[C@H]5C(C)C)c4C)cccc32)c(Cl)cc1CNC[C@@H]1CCC(=O)N1 |
| < 5 | CCOc1cc(O[C@H]2CCc3c(-c4cccc(OCCCN5CCC[C@@H]5C(C)C)c4C)cccc32)c(Cl)cc1CNC[C@@H]1CCC(=O)N1 |
| < 5 | CCOc1cc(O[C@H]2CCc3c(-c4cccc(OCCCN(C)C(C)(C)C)c4C)cccc32)c(Cl)cc1CNC[C@@H]1CCC(=O)N1 |
| 5 to 500 | CCOc1cc(O[C@H]2CCc3c(-c4cccc(OCCCN5CCC5(C)C)c4C)cccc32)c(Cl)cc1CNCC1CCC(=O)N1C (some centres unmarked) |
| 5 to 500 | CCOc1cc(O[C@H]2CCc3c(-c4cccc(OCCCN5CCC5(C)C)c4C)cccc32)c(Cl)cc1CN1CC(CC)(C(=O)O)C1 |
| < 5 | CCOc1cc(O[C@H]2CCc3c(-c4cccc(OCCCN(C)C(C)C)c4C)cccc32)c(Cl)cc1CNC[C@@H]1CCC(=O)N1 |
| 5 to 500 | CCOc1cc(O[C@H]2CCc3c(-c4cccc(OCCCN5CCCCC5(C)C)c4C)cccc32)c(Cl)cc1CNC[C@@H]1CCC(=O)N1 |
| < 5 | CCOc1cc(O[C@H]2CCc3c(-c4cccc(OCCCN5C(C)CC5(C)C)c4C)cccc32)c(Cl)cc1CNC[C@@H]1CCC(=O)N1 (some centres unmarked) |
| 5 to 500 | CCOc1cc(O[C@H]2CCc3c(-c4cccc(OCCCN5CCC5C(C)(C)C)c4C)cccc32)c(Cl)cc1CNC[C@@H]1CCC(=O)N1 (some centres unmarked) |
| 5 to 500 | CCOc1cc(O[C@H]2CCc3c(-c4cccc(OCCC(C)(C)N)c4C)cccc32)c(Cl)cc1CNC[C@@H]1CCC(=O)N1 |
| 5 to 500 | CCOc1cc(O[C@H]2CCc3c(-c4cccc(OCCC(C)(C)N)c4C)cccc32)c(Cl)cc1CN[C@H]1CCC(=O)NC1 |
| < 5 | CCOc1cc(O[C@H]2CCc3c(-c4cccc(OCCCN5CCC5(C)C)c4C)cccc32)c(Cl)cc1CNCCO |
| 5 to 500 | CCOc1cc(O[C@H]2CCc3c(-c4cccc(OCCCN5CCC5(C)C)c4C)cccc32)c(Cl)cc1CNCC(C)(C)CO |
| < 5 | CCOc1cc(O[C@H]2CCc3c(-c4cccc(OCCCN5C(C)CC5C)c4C)cccc32)c(Cl)cc1CNC[C@@H]1CCC(=O)N1 (some centres unmarked) |
| 5 to 500 | CN1CCC(COc2cccc(-c3cccc4c3CC[C@@H]4Oc3cc(OCc4cncc(C#N)c4)c(CN[C@H]4CCC(=O)NC4)cc3Cl)c2Cl)C1=O (some centres unmarked) |
| 5 to 500 | CCOc1cc(O[C@H]2CCc3c(-c4cccc(OCCCN5CC(C)(C)C5)c4C)cccc32)c(Cl)cc1CNC[C@@H]1CCC(=O)N1 |
| 5 to 500 | CCOc1cc(O[C@@H]2c3cccc(-c4cccc(OCCCN5CCC(C)(F)CC5)c4C)c3C[C@@H]2F)c(Cl)cc1CNC[C@@H]1CCC(=O)N1 |
